Experimental data taken from publication PMC5970127, “In vivo evaluation of two tissue transglutaminase PET tracers in an orthotopic tumour xenograft model” (EJNMMI Research, 2018).
“And” between values parts separate entries of the source, which are not always exact repeats. Equal entries are not always repeated. Where two headings read alike, the source gives them in different places.

How the values were obtained:
[1] = tested on: MDA-MB-231 tumour sections; set-up: method as in PMID 27067043, PMID 27837727; conditions: cited from earlier work
TG2 [2] = tested on: TG2; set-up: method as in PMID 27067043, PMID 27837727; conditions: TG2 inhibition; cited from earlier work
MDA-MB-231 tumour = test: Dynamic PET imaging in orthotopic MDA-MB-231 tumour xenograft model; type: in vivo, SCID mice
Procedure: Severe combined immunodeficient (SCID) female mice (6–8 weeks, 20 to 25 g, Charles River, Wilmington, MA, USA) were housed in sterile cages under standard conditions (24 °C, 60% relative humidity, 12-h light/dark cycles) and provided with water and food ad libitum. MDA-MB-231 cells (1 × 10^6) were injected orthotopically in the fat pad of the second thoracic mammary glands (bilateral). Tumour dimensions were measured using a Vernier calliper, and tumour volume was calculated using the formula (x^2 y)/2 (x and y being the width and length, respectively) for an ellipsoid. At 8 weeks after MDA-MB-231 cell injection, tumours reached the target size of 200 mm^3. This study was performed according to national regulations and was approved by the Animal Experimentation Ethics Committee of the VU University Medical Center.
Dynamic PET imaging was performed using dedicated small animal NanoPET/CT and NanoPET/MR scanners (Mediso Ltd., Hungary, Budapest) with identical PET components. Mice (n = 4 per group) were anaesthetized with 4 and 2% isoflurane in 1 L · min^−1 oxygen for induction and maintenance, respectively. Mice were positioned on the scanner bed, and the respiratory rate was monitored for the duration of the scan, adjusting anaesthesia when required. A dynamic PET scan was acquired immediately after intravenous (i.v.) administration (tail vein) of 5 MBq [^11C]1 or [^18F]2. For blocking experiments, mice were injected subcutaneously with ERW1041E (50 mg · kg^−1) dissolved in 20% dimethylsulfoxide in 0.9% saline, 30 min prior to the tracer injection. An additional blocking experiment was performed by co-administration of compound 2 (50 μg, 75 nmol) and [^18F]2, which corresponded with a molar activity of 0.07 GBq · μmol^−1. PET scans were acquired in list mode and rebinned into the following frame sequence: 4 × 5, 4 × 10, 2 × 30, 3 × 60, 2 × 300, 1 × 600, 1 × 900 and 1 × 1200 s. In addition, a static [^18F]2-fluoro-2-deoxy-D-glucose ([^18F]FDG) scan was acquired for 30 min immediately after [^18F]FDG administration (10 MBq, tail vein). At least a 24-h time interval between [^18F]FDG scans and [^11C]1 or [^18F]2 scans was maintained. Reconstruction was performed with a fully 3-dimensional (3D) reconstruction algorithm using four iterations and six subsets, resulting in an isotropic 0.4-mm voxel dimension. Images were analysed using the freely available AMIDE-software version 1.0.4 (retrieved from https://sourceforge.net/projects/amide/files/amide/1.0.4). Regions of interest (ROIs) were drawn around the tumour tissue and leg muscle. Results are expressed as percentage injected dose per gram (%ID/g). Error bars indicate standard deviation. After PET scanning experiments, animals were sacrificed by cervical dislocation, tumours were isolated, and stored at − 80 °C until further use.

[3] = Plasma metabolite analysis after i.v. administration in SCID mice; type: in vivo; conditions: mouse plasma
Procedure: Healthy female SCID mice (20–25 g, Harlan, Horst, The Netherlands) were injected in the tail vein with [^11C]1 or [^18F]2 (20 MBq) under isoflurane anaesthesia (2% in O2 at 1 L · min^−1). Mice were sacrificed at 15 and 45 min post injection (n = 3 for each time-point) by cervical dislocation. Blood (~ 0.5–1 mL) was withdrawn by heart puncture, collected in a heparin-coated tube and centrifuged at 5000 RPM to separate plasma from blood cells. Solid phase extraction (SPE) cartridges (tC18, Waters, Milford, MA, USA) were preconditioned by washing with methanol (MeOH, 6 mL) and H2O (two times 6 mL). Plasma (~ 0.2 mL) was mixed with 0.15 M HCl (0.2 mL) and loaded on the tC18 cartridge. The polar fraction was obtained by elution of the cartridge with H2O (3 mL), the non-polar fraction by subsequent elution with MeOH (1.5 mL) and H2O (0.5 mL). Both fractions were counted for radioactivity in a gamma counter. The percentage of intact tracer in the non-polar fraction was determined by online and offline HPLC analysis (Gemini C18 column (5 μm, 10 mm × 250 mm, Phenomenex, Torrance, CA, USA) with eluent MeCN (A) and 0.1% TFA acid in H2O (B) as eluent according to the following schemes; For [^11C]1: 0 min, 70% B at 0.25 mL · min^−1; 0.5 min, 70% B at 3.5 mL · min^−1; 9.0 min, 10% B at 3.5 mL · min^−1; 12.0 min, 10% B at 3.5 mL · min^−1; 12.5 min, 70% B at 3.5 mL · min^−1; 14.5 min, 70% B at 3.5 mL · min^−1 and 15 min, 70% B at 0.25 mL · min^−1 or for [^18F]2: 0 min, 80% B at 0.25 mL · min^−1; 0.5 min, 80% B at 3 mL · min^−1; 6.0 min, 30% B at 3 mL · min^−1; 12.0 min, 30% B at 3 mL · min^−1; 12.5 min, 80% B at 3.0 mL · min^−1; 14.5 min, 80% B at 3.0 mL · min^−1; 15.0 min, 80% B at 0.25 mL · min^−1 (Rt = 11.5 min). Offline HPLC analysis was performed when the online HPLC analysis yielded a low signal to noise ratio. For offline analysis, HPLC fractions (30 s per fraction) were collected and counted for radioactivity (WIZARD 2480 Compugamma, PerkinElmer, Waltham, MA, USA). The counting results were plotted to generate the corresponding HPLC chromatograms. Data were expressed as percentage of intact tracer, polar metabolites, and non-polar metabolites ± standard deviation.
To healthy SCID mice (n = 2) 10 MBq [^18F]2 diluted with 50 μg (2.5 mg · kg^−1) of unlabelled 2 was administered, corresponding to a molar activity of 0.14 GBq · μmol^−1. At 30 min post injection, animals were sacrificed under isoflurane anaesthesia (2% in O2 at 1 L · min^−1) by cervical dislocation. Blood (~ 1 mL) was collected by heart puncture. Blood plasma was separated using a SPE procedure as described in the “Metabolite analysis” section (vide supra). The non-polar fraction was analysed by HPLC and Liquid chromatography–tandem mass spectrometry (LC-MS/MS) in multiple reaction monitoring (MRM) mode. […]

[4] = cited from earlier work; for Intact (%) / Non-polar (%) / Polar (%): rat plasma
activated FXIII = tested on: activated FXIII; set-up: method as in PMID 27067043, PMID 27837727; conditions: cited from earlier work
TG2 [5] = tested on: TG2; set-up: method as in PMID 24152195; conditions: cited from earlier work
TG2 [6] = target: TG2; set-up: method as in PMID 17149878; conditions: cited from earlier work
[7] = 15 min after i.v., % of total blood plasma activity ± SD
[8] = animals sacrificed at 60 min post injection (listed under 45 min)

Intact (%) [3, 7] | Intact (%) ([3]; 45 min after i.v.) | SMILES | Binding to MDA-MB-231 tumour sections (in vitro autoradiography) [1] | IC50 (TG2 [2]) | Intact (%) ([4]; 15 min after i.v.) | Non-polar (%) ([4]; 15 min after i.v.) | Polar (%) ([4]; 15 min after i.v.) | Affinity for activated FXIII (activated FXIII) | also measured
56 ± 14% | 24% and 24 ± 1% | C=C[11C](=O)NCCCC[C@H](NC(=O)Cc1ccccc1)C(=O)N1CCN(c2cccc(C)n2)CC1 [[^11C]1, (S)-N-(6-(4-(6-methylpyridin-2-yl)piperazin-1-yl)-6-oxo-5-(2-phenylacetamido)hexyl)[^11C]acrylamide] | specific and selective binding | 53 nM | 65 ± 7% | 13 ± 4% | 21 ± 3% | no affinity | Effect of ERW1041E pretreatment on tumour activity (MDA-MB-231 tumour; ERW1041E 50 mg/kg s.c. 30 min prior to tracer): significant increase in tumour activity; Time of peak tumour uptake after injection (MDA-MB-231 tumour; baseline): 5 to 10 min; Tumour uptake (MDA-MB-231 tumour; baseline, 40–60 min p.i., 5 MBq i.v.): approx. 0.5 %ID/g; Intact (%) ([4]; 45 min after i.v.): 29 ± 11%; Non-polar (%) ([4]; 45 min after i.v.): 6 ± 3%; Polar (%) ([4]; 45 min after i.v.): 65 ± 12%
 |  | O=C(NC[C@@H]1CC(Br)=NO1)[C@@H]1CCCN1C(=O)OCc1cnc2ccccc2c1 [ERW1041E, Quinolin-3-ylmethyl (S)-2-((((S)-3-bromo-4,5-dihydroisoxazol-5-yl)methyl)carbamoyl)pyrrolidine-1-carboxylate] |  |  |  |  |  |  | Inhibition of TG2 activity in mouse model of pulmonary hypertension (TG2 [5]; 50 mg/kg): inhibition of TG2 activity to background levels; Reduction of TG2 activity in pulmonary hypertension model (TG2 [5]; 30 min after administration): factor of four; Time of maximum TG2 inhibitory effect after administration (TG2 [5]): 30 min; Ki (TG2 [6]): 11000 nM
 |  | CC(C)C[C@H](NC(=O)[C@@H]1CCCN1C(=O)[C@@H](NC(=O)[C@H](CCC(=O)C=[N+]=[N-])NC(=O)CO/N=C/c1ccc([18F])cc1)C(C)C)C(=O)O [[^18F]M1] |  | 45 nM |  |  |  |  | 
20 ± 1% | 3 ± 2% | COC(=O)[C@H](CC(C)C)NC(=O)[C@@H]1CCCN1C(=O)[C@@H](NC(=O)[C@H](CCC(=O)C=[N+]=[N-])NC(=O)CO/N=C/c1ccc([18F])cc1)C(C)C [[^18F]2, (S)-methyl 2-((S)-1-((7S,10S,E)-7-(4-diazo-3-oxobutyl)-1-(4-[^18F]fluorophenyl)-10-isopropyl-5,8-dioxo-3-oxa-2,6,9-triazaundec-1-en-11-oyl)pyrrolidine-2-carboxamido)-4-methylpentanoate] | specific and selective binding | 104 nM | 1 ± 1% | 98 ± 1% | 2 ± 0% | no affinity | Tumour activity after pretreatment with ERW1041E (MDA-MB-231 tumour; ERW1041E 50 mg/kg s.c. 30 min prior to tracer, 40–60 min, p = 0.06 vs baseline): 1.4 %ID/g; Background (muscle, right femur) activity (MDA-MB-231 tumour; baseline, 40–60 min time-frame): 0.8 %ID/g; Tumour activity with co-administered unlabelled 2 (MDA-MB-231 tumour; self-blocking, 2 (50 μg, 75 nmol) co-administered, 40–60 min, p = 0.007): approximately 1.0 %ID/g; Metabolism in vivo ([4]; 15 min post injection): completely metabolised; Intact (%) [4, 8]: 0 ± 0 %; Non-polar (%) [4, 8]: 92 ± 3 %; Polar (%) [4, 8]: 8 ± 3 %
